Drawing on patent US20240190842A1, “SUBSTITUTED QUINOLINONE-8-CARBONITRILE DERIVATIVES HAVING ANDROGEN DEGRADATION ACTIVITY AND USES THEREOF” (Accutar Biotechnology Inc., priority 2022, published 2024), this text covers GI50 for 8 compounds.

A value given as a limit tells only on which side of the number the result lay.

In one experiment the test system is LNCAP cells. The experiment is described as follows: Inhibition of R1881 stimulated cell growth in LNCAP cells (CellTiter-Glo). The settings on record: Homo sapiens, 144 h, 10% CSS, 6 days. It is filed as cell-based. The method, then: (§1) LNCAP and VCAP cells were seeded in 96-well plates at 5000 (LNCAP) and 6000 (VCAP) cells/well in phenol red-free RPM11640 supplemented with 10% charcoal stripped serum (CSS), and then incubated at 37° C. overnight. The following day, the test compound was administered to the cells by using 1000× compound stock solution prepared in DMSO at various concentrations. 1000× compound stock solution was first diluted 1:100 in phenol red-free RPM11640 supplemented with 10% CSS and 1 nM R1881 to prepare the 10× treatment solutions containing serial dilutions of AC176 together in the presence of 1 nM, and then 10 uL compound medium was added to each well in the cell plates. After administration of the compound, the cells were then incubated at 37° C. for 6 days. Upon completion, the plates were equilibrated at room temperature for approximately 10 minutes. 100 ul of CellTiter-Glo® 3D Reagent (Promega) was added to each well. The plates were then incubated at room temperature for 30 minutes and luminescence was recorded by EnSpire plate reader (PerkinElmer). The results are shown in Table 5, which summarizes the growth inhibition (G150) in LNCAP and VCAP cells with exemplary compounds of the present disclosure.

The next experiment concerns VCAP cells. The experiment is described as follows: Inhibition of R1881 stimulated cell growth in VCAP cells (CellTiter-Glo). It is filed as cell-based. The following applies: Homo sapiens, 144 h, 10% CSS, 6 days. How it is done:
as §1
(Cellular ATP, detected with luciferase, serves as a proxy for viable cell number.)

`CC1(C)C(NC(=O)c2ccc(N3CCC(CN4CCN(c5ccc6c(=O)n(C7CCC(=O)NC7=O)ncc6c5)CC4)CC3)cc2)C(C)(C)C1Oc1ccc(C#N)c2[nH]c(=O)ccc12` (stereo not drawn) [Compound 49, N-((1,3-trans)-3-((8-cyano-2-oxo-1,2-dihydroquinolin-5-yl)oxy)-2,2,4,4-tetramethylcyclobutyl)-4-(4-((4-(2-(2,6-dioxopiperidin-3-yl)-1-oxo-1,2-dihydrophthalazin-6-yl)piperazin-1-yl)methyl)piperidin-1-yl)benzamide]: the GI50 (commonly the concentration at which growth is held to half of that of the control) in the experiment with LNCAP cells is above 0.5 µM; in the experiment with VCAP cells, 0.05 to 0.5 µM.

Consider `CC1(C)C(NC(=O)c2ccc(N3CCC(CN4CCN(c5ccc(C(=O)N[C@H]6CCC(=O)NC6=O)nc5)CC4)CC3)cc2)C(C)(C)C1Oc1ccc(C#N)c2[nH]c(=O)ccc12` (stereo partly drawn) [Compound 43, 5-(4-((1-(4-(((1,3-trans)-3-((8-cyano-2-oxo-1,2-dihydroquinolin-5-yl)oxy)-2,2,4,4-tetramethylcyclobutyl)carbamoyl)phenyl)piperidin-4-yl)methyl)piperazin-1-yl)-N-((S)-2,6-dioxopiperidin-3-yl)picolinamide], for which the values for the GI50 in the experiment with LNCAP cells and in the experiment on VCAP cells were above 0.5 µM and 0.05 to 0.5 µM, respectively.

Take `Cn1ccc(=O)c2c(O[C@H]3C(C)(C)[C@H](NC(=O)c4ccc(N5CCC(CN6CCN(c7ccc8c(c7)CN([C@H]7CCC(=O)NC7=O)C8=O)CC6)CC5)cc4)C3(C)C)ccc(C#N)c21` [Compound 39, N-((1,3-trans)-3-((8-cyano-1-methyl-4-oxo-1,4-dihydroquinolin-5-yl)oxy)-2,2,4,4-tetramethylcyclobutyl)-4-(4-((4-(2-((S)-2,6-dioxopiperidin-3-yl)-1-oxoisoindolin-5-yl)piperazin-1-yl)methyl)piperidin-1-yl)benzamide]: the GI50 in the experiment with LNCAP cells and in the experiment with VCAP cells was at most 0.05 µM each time.

Turning to `CC1(C)[C@H](NC(=O)c2ccc(N3CCC(CN4CCN(c5ccc6c(c5)CN([C@H]5CCC(=O)NC5=O)C6=O)CC4)CC3)c(F)c2)C(C)(C)[C@H]1Oc1ccc(C#N)c2[nH]c(=O)ccc12` [Compound 16, N-((1,3-trans)-3-((8-cyano-2-oxo-1,2-dihydroquinolin-5-yl)oxy)-2,2,4,4-tetramethylcyclobutyl)-4-(4-((4-(2-((S)-2,6-dioxopiperidin-3-yl)-1-oxoisoindolin-5-yl)piperazin-1-yl)methyl)piperidin-1-yl)-3-fluorobenzamide], the GI50 in the experiment with LNCAP cells and in the experiment with VCAP cells was at most 0.05 µM in each case.

`CC1(C)C(NC(=O)c2ccc(N3CCC(CN4CCN(c5ccc6c(c5)C(=O)N(C5CCC(=O)NC5=O)C6=O)CC4)CC3)cc2)C(C)(C)C1Oc1ccc(C#N)c2[nH]c(=O)ccc12` (stereo not drawn) [Compound 20, N-((1,3-trans)-3-((8-cyano-2-oxo-1,2-dihydroquinolin-5-yl)oxy)-2,2,4,4-tetramethylcyclobutyl)-4-(4-((4-(2-(2,6-dioxopiperidin-3-yl)-1,3-dioxoisoindolin-5-yl)piperazin-1-yl)methyl)piperidin-1-yl)benzamide]: the GI50 was above 0.5 µM in the experiment with LNCAP cells and 0.05 to 0.5 µM in the experiment on VCAP cells.

`CC1(C)C(NC(=O)c2ccc(N3CCC(CN4CCN(c5ccc6c(c5)CN([C@H]5CCC(=O)NC5=O)C6=O)CC4)CC3)cc2)C(C)(C)C1Oc1ccc(C#N)c2[nH]c(=O)ccc12` (stereo partly drawn) [Compound 18, N-((1,3-trans)-3-((8-cyano-2-oxo-1,2-dihydroquinolin-5-yl)oxy)-2,2,4,4-tetramethylcyclobutyl)-4-(4-((4-(2-((S)-2,6-dioxopiperidin-3-yl)-1-oxoisoindolin-5-yl)piperazin-1-yl)methyl)piperidin-1-yl)benzamide]: the GI50 with LNCAP cells and in the experiment with VCAP cells was at most 0.05 µM in each case.

Turning to `CC1(C)C(NC(=O)c2ccc(N3CCC(CN4CCN(c5ccc6c(c5)CN([C@H]5CCC(=O)NC5=O)C6=O)CC4)CC3)cc2)C(C)(C)C1Oc1ccc(C#N)c2[nH]ccc(=O)c12` (stereo partly drawn) [Compound 30, N-((1,3-trans)-3-((8-cyano-4-oxo-1,4-dihydroquinolin-5-yl)oxy)-2,2,4,4-tetramethylcyclobutyl)-4-(4-((4-(2-((S)-2,6-dioxopiperidin-3-yl)-1-oxoisoindolin-5-yl)piperazin-1-yl)methyl)piperidin-1-yl)benzamide], the GI50 in the experiment on LNCAP cells and in the experiment on VCAP cells was at most 0.05 µM throughout.

Consider `Cn1c(=O)ccc2c(OC3C(C)(C)C(NC(=O)c4ccc(N5CCC(CN6CCN(c7ccc8c(c7)CN([C@H]7CCC(=O)NC7=O)C8=O)CC6)CC5)cc4)C3(C)C)ccc(C#N)c21` (stereo partly shown) [Compound 34], for which the GI50 with LNCAP cells and in the experiment with VCAP cells was at most 0.05 µM throughout.
